Assay results taken from ChEMBL document CHEMBL1126103, “3'-C-branched 2'-deoxy-5-methyluridines: synthesis, enzyme inhibition, and antiviral properties” (J Med Chem, 1992).

What was measured:
[1] = test system: MT4; assay: Cytotoxic concentration required to reduce MT-4 cells viability by 50%; assay type: functional; conditions: Homo sapiens
[2] = test system: MT4; assay: Effective concentration required to inhibit HIV-1-induced cytopathicity in MT-4 cells; assay type: functional, cell-based; conditions: Homo sapiens

Compound | CC50 [1] | EC50 [2]
Cc1cn([C@H]2C[C@](C)(O)[C@@H](CO)O2)c(=O)[nH]c1=O | > 500 µM | > 500 µM
Cc1cn([C@H]2C[C@@](C)(O)[C@@H](COP(=O)(O)O)O2)c(=O)[nH]c1=O | > 500 µM | 243 µM
Cc1cn([C@H]2C[C@@](C)(O)[C@@H](CO)O2)c(=O)[nH]c1=O | > 500 µM | > 500 µM
Cc1cn([C@H]2C[C@](C)(O)[C@@H](COP(=O)(O)O)O2)c(=O)[nH]c1=O | > 500 µM | 72 µM
